Source: ChEMBL document CHEMBL4308841, “Synthesis, in vitro antiproliferative activity, and kinase inhibitory effects of pyrazole-containing diarylureas and diarylamides” (Eur J Med Chem, 2018)

Legend:
NCI-H522 = experiment: Growth inhibition of human NCI-H522 cells assessed as cell growth at 10 uM incubated for 48 hrs by sulforhodamine B assay relative to control; type: functional; details: NCI-H522, 48 h, read-out: Activity
SR [1] = experiment: Growth inhibition of human SR cells incubated for 48 hrs by sulforhodamine B assay; type: functional, cell-based
HCT-116 [2] = experiment: Growth inhibition of human HCT116 cells incubated for 48 hrs by sulforhodamine B assay; type: functional, cell-based; details: HCT-116, 48 h
UACC-62 [3] = experiment: Growth inhibition of human UACC62 cells incubated for 48 hrs by sulforhodamine B assay; type: functional, cell-based; details: UACC-62, 48 h
OVCAR-3 [4] = experiment: Growth inhibition of human OVCAR3 cells incubated for 48 hrs by sulforhodamine B assay; type: functional, cell-based; details: OVCAR-3, 48 h
786-0 = experiment: Growth inhibition of human 786-0 cells incubated for 48 hrs by sulforhodamine B assay; type: functional, cell-based; details: 786-0, 48 h
RXF 393 = experiment: Growth inhibition of human RXF393 cells incubated for 48 hrs by sulforhodamine B assay; type: functional, cell-based; details: RXF 393, 48 h
MDA-MB-468 = experiment: Growth inhibition of human MDA-MB-468 cells incubated for 48 hrs by sulforhodamine B assay; type: functional, cell-based; details: MDA-MB-468, 48 h
NCI-H226 = experiment: Growth inhibition of human NCI-H226 cells assessed as cell growth at 0.01 uM incubated for 48 hrs by sulforhodamine B assay relative to control; type: functional; details: NCI-H226, 48 h, read-out: Activity
OVCAR-3 [5] = experiment: Growth inhibition of human OVCAR3 cells assessed as cell growth at 0.01 uM incubated for 48 hrs by sulforhodamine B assay relative to control; type: functional; details: OVCAR-3, 48 h, read-out: Activity
NCI/ADR-RES [6] = experiment: Growth inhibition of human NCI/ADR-RES cells assessed as cell growth at 0.01 uM incubated for 48 hrs by sulforhodamine B assay relative to control; type: functional; details: read-out: Activity
T47D = experiment: Growth inhibition of human T47D cells assessed as cell growth at 0.01 uM incubated for 48 hrs by sulforhodamine B assay relative to control; type: functional; details: read-out: Activity
HCT-116 [7] = experiment: Growth inhibition of human HCT116 cells assessed as cell growth at 0.1 uM incubated for 48 hrs by sulforhodamine B assay relative to control; type: functional; details: HCT-116, 48 h, read-out: Activity
HCT-15 = experiment: Growth inhibition of human HCT15 cells assessed as cell growth at 0.1 uM incubated for 48 hrs by sulforhodamine B assay relative to control; type: functional; details: HCT-15, 48 h, read-out: Activity
M14 = experiment: Growth inhibition of human M14 cells assessed as cell growth at 0.1 uM incubated for 48 hrs by sulforhodamine B assay relative to control; type: functional; details: M14, 48 h, read-out: Activity
SK-MEL-28 [8] = experiment: Growth inhibition of human SK-MEL-28 cells assessed as cell growth at 0.1 uM incubated for 48 hrs by sulforhodamine B assay relative to control; type: functional; details: SK-MEL-28, 48 h, read-out: Activity
SK-MEL-5 [9] = experiment: Growth inhibition of human SK-MEL-5 cells assessed as cell growth at 0.1 uM incubated for 48 hrs by sulforhodamine B assay relative to control; type: functional; details: SK-MEL-5, 48 h, read-out: Activity
SR [10] = experiment: Growth inhibition of human SR cells assessed as cell growth at 1 uM incubated for 48 hrs by sulforhodamine B assay relative to control; type: functional; details: read-out: Activity
NCI-H23 [11] = experiment: Growth inhibition of human NCI-H23 cells assessed as cell growth at 1 uM incubated for 48 hrs by sulforhodamine B assay relative to control; type: functional; details: NCI-H23, 48 h, read-out: Activity
Malme-3M [12] = experiment: Growth inhibition of human MALME-3M cells assessed as cell growth at 1 uM incubated for 48 hrs by sulforhodamine B assay relative to control; type: functional; details: read-out: Activity
SK-MEL-2 = experiment: Growth inhibition of human SK-MEL-2 cells assessed as cell growth at 1 uM incubated for 48 hrs by sulforhodamine B assay relative to control; type: functional; details: SK-MEL-2, 48 h, read-out: Activity
NCI/ADR-RES [13] = experiment: Growth inhibition of human NCI/ADR-RES cells assessed as cell growth at 1 uM incubated for 48 hrs by sulforhodamine B assay relative to control; type: functional; details: read-out: Activity
NCI-H23 [14] = experiment: Growth inhibition of human NCI-H23 cells assessed as cell growth at 100 uM incubated for 48 hrs by sulforhodamine B assay relative to control; type: functional; details: NCI-H23, 48 h, read-out: Activity
SF-539 = experiment: Growth inhibition of human SF539 cells assessed as cell growth at 100 uM incubated for 48 hrs by sulforhodamine B assay relative to control; type: functional; details: SF-539, 48 h, read-out: Activity
Malme-3M [15] = experiment: Growth inhibition of human MALME-3M cells assessed as cell growth at 100 uM incubated for 48 hrs by sulforhodamine B assay relative to control; type: functional; details: read-out: Activity
SK-MEL-28 [16] = experiment: Growth inhibition of human SK-MEL-28 cells assessed as cell growth at 100 uM incubated for 48 hrs by sulforhodamine B assay relative to control; type: functional; details: SK-MEL-28, 48 h, read-out: Activity
SK-MEL-5 [17] = experiment: Growth inhibition of human SK-MEL-5 cells assessed as cell growth at 100 uM incubated for 48 hrs by sulforhodamine B assay relative to control; type: functional; details: SK-MEL-5, 48 h, read-out: Activity
UACC-62 [18] = experiment: Growth inhibition of human UACC62 cells assessed as cell growth at 100 uM incubated for 48 hrs by sulforhodamine B assay relative to control; type: functional; details: UACC-62, 48 h, read-out: Activity
OVCAR-5 = experiment: Growth inhibition of human OVCAR5 cells assessed as cell growth at 100 uM incubated for 48 hrs by sulforhodamine B assay relative to control; type: functional; details: OVCAR-5, 48 h, read-out: Activity
[19] = read-out: LC50 (the source's name)
[20] = read-out: pLC50 (the source's name) (converted)

## COc1cc(Cl)cc(-c2nn(-c3cccc(NC(=O)c4cccc(C(F)(F)F)c4)c3)cc2-c2ccncc2)c1
NCI-H522
  growth at 10 µM: 32.2%
SR [1]; read-out: GI50
  GI50: 2.48 µM
SR [1]; [19]
  CC50: > 100 µM
SR [1]; read-out: TGI
  TGI: > 100 µM
SR [1]; read-out: pGI50 (converted)
  GI50: 3.09 µM
SR [1]; [20]
  CC50: > 100 µM
SR [1]; read-out: pTGI (converted)
  TGI: > 100 µM
HCT-116 [2]
  IC50: 3.17 µM
HCT-116 [2]; read-out: GI50
  GI50: 3.17 µM
HCT-116 [2]; [19]
  CC50: > 100 µM
HCT-116 [2]; read-out: TGI
  TGI: > 100 µM
HCT-116 [2]; read-out: pGI50 (converted)
  GI50: 3.16 µM
HCT-116 [2]; [20]
  CC50: > 100 µM
HCT-116 [2]; read-out: pTGI (converted)
  TGI: > 100 µM
UACC-62 [3]
  IC50: 8.04 µM
UACC-62 [3]; read-out: GI50
  GI50: 0.04 µM
UACC-62 [3]; [19]
  CC50: > 100 µM
UACC-62 [3]; read-out: TGI
  TGI: > 100 µM
UACC-62 [3]; read-out: pGI50 (converted)
  GI50: 8.13 µM
UACC-62 [3]; [20]
  CC50: > 100 µM
UACC-62 [3]; read-out: pTGI (converted)
  TGI: > 100 µM
OVCAR-3 [4]
  IC50: 7.69 µM
OVCAR-3 [4]; read-out: GI50
  GI50: 7.59 µM
OVCAR-3 [4]; [19]
  CC50: > 100 µM
OVCAR-3 [4]; read-out: TGI
  TGI: > 100 µM
OVCAR-3 [4]; read-out: pGI50 (converted)
  GI50: 7.76 µM
OVCAR-3 [4]; [20]
  CC50: > 100 µM
OVCAR-3 [4]; read-out: pTGI (converted)
  TGI: > 100 µM
786-0; read-out: GI50
  GI50: 1.57 µM
786-0; [19]
  CC50: > 100 µM
786-0; read-out: TGI
  TGI: > 100 µM
786-0; read-out: pGI50 (converted)
  GI50: 16.6 µM
786-0; [20]
  CC50: > 100 µM
786-0; read-out: pTGI (converted)
  TGI: > 100 µM
RXF 393
  LC50: > 100 µM
RXF 393; read-out: GI50
  GI50: 1.57 µM
RXF 393; read-out: TGI
  TGI: > 100 µM
RXF 393; read-out: pGI50 (converted)
  GI50: 1.86 µM
RXF 393; read-out: pTGI (converted)
  TGI: > 100 µM
MDA-MB-468
  IC50: 4.26 µM
MDA-MB-468; read-out: GI50
  GI50: 4.26 µM
MDA-MB-468; [19]
  CC50: > 100 µM
MDA-MB-468; read-out: TGI
  TGI: > 100 µM
MDA-MB-468; read-out: pGI50 (converted)
  GI50: 4.27 µM
MDA-MB-468; [20]
  CC50: > 100 µM
MDA-MB-468; read-out: pTGI (converted)
  TGI: > 100 µM
NCI-H226
  growth at 0.01 µM: 95%
OVCAR-3 [5]
  growth at 0.01 µM: 105%
NCI/ADR-RES [6]
  growth at 0.01 µM: 103%
T47D
  growth at 0.01 µM: 99%
HCT-116 [7]
  growth at 0.1 µM: 94%
HCT-15
  growth at 0.1 µM: 91%
M14
  growth at 0.1 µM: 93%
SK-MEL-28 [8]
  growth at 0.1 µM: 97%
SK-MEL-5 [9]
  growth at 0.1 µM: 95%
SR [10]
  growth at 1 µM: 58%
NCI-H23 [11]
  growth at 1 µM: 94%
Malme-3M [12]
  growth at 1 µM: 82%
SK-MEL-2
  growth at 1 µM: 56%
NCI/ADR-RES [13]
  growth at 1 µM: 89%
NCI-H23 [14]
  growth at 100 µM: 27%
SF-539
  growth at 100 µM: 53%
Malme-3M [15]
  growth at 100 µM: 55%
SK-MEL-28 [16]
  growth at 100 µM: 75%
SK-MEL-5 [17]
  growth at 100 µM: 20%
UACC-62 [18]
  growth at 100 µM: 40%
OVCAR-5
  growth at 100 µM: 59%
